Measured values as given in ChEMBL document CHEMBL1155821, “Discovery of (-)-7-methyl-2-exo-[3'-(6-[18F]fluoropyridin-2-yl)-5'-pyridinyl]-7-azabicyclo[2.2.1]heptane, a radiolabeled antagonist for cerebral nicotinic acetylcholine receptor (alpha4beta2-nAChR) with optimal positron emission tomography imaging properties” (J Med Chem, 2008).

What was measured:
[1] = biological target: Neuronal acetylcholine receptor; alpha3/beta2 (Rattus norvegicus, UniProt P04757+P12390); experiment: Displacement of [3H]epibatidine from rat alpha3beta2 nAChR expressed in HEK293 cells; type: cell-based
Mus musculus [2] = experiment: Toxicity in CD1 mouse assessed as seizures at 6.7 umol/kg, iv; type: organism-based; conditions: in vivo
Mus musculus [3] = experiment: Toxicity in CD1 mouse assessed as straub tail response at 0.8 umol/kg, iv; type: organism-based; conditions: in vivo
Mus musculus [4] = experiment: Toxicity in CD1 mouse assessed as circling behavior at 1.7 umol/kg, iv; type: organism-based; conditions: in vivo
[5] = biological target: Neuronal acetylcholine receptor subunit alpha-2 (Rattus norvegicus, UniProt P12389+P12390); experiment: Displacement of [3H]epibatidine from rat alpha2beta2 nAChR expressed in HEK293 cells; type: cell-based
Mus musculus [6] = experiment: Toxicity in CD1 mouse assessed as straub tail response at 1.7 umol/kg, iv; type: organism-based; conditions: in vivo
Mus musculus [7] = experiment: Toxicity in CD1 mouse assessed as straub tail response at 6.7 umol/kg, iv; type: organism-based; conditions: in vivo
Mus musculus [8] = experiment: Toxicity in CD1 mouse assessed as straub tail response at 3.3 umol/kg, iv; type: organism-based; conditions: in vivo
[9] = biological target: Neuronal acetylcholine receptor; alpha3/beta4 (Rattus norvegicus, UniProt P04757+P12392); experiment: Displacement of [3H]epibatidine from rat alpha3beta4 nAChR expressed in HEK293 cells; type: cell-based
[10] = Half life in rhesus monkey thalamus; type: ADME, organism-based, Macaca mulatta
[11] = biological target: Neuronal acetylcholine receptor; alpha2/beta4 (Rattus norvegicus, UniProt P12389+P12392); experiment: Displacement of [3H]epibatidine from rat alpha2beta4 nAChR expressed in HEK293 cells; type: cell-based
Mus musculus [12] = experiment: Toxicity in CD1 mouse assessed as circling behavior at 0.8 umol/kg, iv; type: organism-based; conditions: in vivo
Mus musculus [13] = experiment: Toxicity in CD1 mouse assessed as hyperactivity at 3.3 umol/kg, iv; type: organism-based; conditions: in vivo
Mus musculus [14] = experiment: Toxicity in CD1 mouse assessed as mortality at 2.0 umol/kg, iv; type: organism-based; conditions: in vivo
Mus musculus [15] = experiment: Toxicity in CD1 mouse assessed as straub tail response at 1.3 umol/kg, iv; type: organism-based; conditions: in vivo
Mus musculus [16] = experiment: Toxicity in CD1 mouse assessed as seizures at 1.3 umol/kg, iv; type: organism-based; conditions: in vivo
[17] = Half life in iv dosed baboon thalamus; type: ADME, organism-based; conditions: papio anubis
[18] = Metabolic stability in CD1 mouse blood at 1.5 MBq, iv after 30 mins; type: ADME, organism-based; conditions: read-out: Stability
[19] = Metabolic stability in iv dosed baboon blood after 60 mins; type: ADME, organism-based; conditions: papio anubis, read-out: Stability
[20] = Metabolic stability in CD1 mouse brain at 1.5 MBq, iv after 30 mins; type: ADME, organism-based; conditions: read-out: Stability
[21] = Lipophilicity, log D at pH 7.4; type: physicochemical; conditions: buffer
[22] = Displacement of [3H]epibatidine from nAChR in rat cerebral cortex membrane; type: cell membranes
[23] = biological target: Neuronal acetylcholine receptor; alpha4/beta2 (Rattus norvegicus, UniProt P09483+P12390); experiment: Displacement of [3H]epibatidine from rat alpha4beta2 nAChR expressed in HEK293 cells; type: cell-based
[24] = biological target: Neuronal acetylcholine receptor; alpha4/beta4 (Rattus norvegicus, UniProt P09483+P12392); experiment: Displacement of [3H]epibatidine from rat alpha4beta4 nAChR expressed in HEK293 cells; type: cell-based
[25] = biological target: Neuronal acetylcholine receptor subunit alpha-6 (Rattus norvegicus, UniProt P12390+P43143); experiment: Displacement of [3H]epibatidine from rat alpha6beta2 nAChR expressed in HEK293 cells; type: cell-based
[26] = biological target: T1, Neuronal acetylcholine receptor; alpha4/beta2 (Homo sapiens, UniProt P17787+P43681); experiment: Binding affinity to human alpha4beta2 nAChR expressed in human SHEP1 cells; type: cell-based
Mus musculus [27] = experiment: Toxicity in CD1 mouse at 0.05 umol/kg, iv; type: organism-based; conditions: in vivo
Mus musculus [28] = experiment: Toxicity in CD1 mouse at 0.002 umol/kg, iv; type: organism-based; conditions: in vivo
Mus musculus [29] = experiment: Toxicity in CD1 mouse assessed as reduced locomotor activity at 2.0 umol/kg, iv; type: organism-based; conditions: in vivo
Mus musculus [30] = experiment: Toxicity in CD1 mouse at 0.2 umol/kg, iv; type: organism-based; conditions: in vivo
[31] = biological target: T1, Neuronal acetylcholine receptor; alpha4/beta2; experiment: Antagonist activity at human alpha4beta2 nAChR expressed in human SHEP1 cells assessed as reduction in peak amplitude at 1 uM by whole cell patch clamp technique in presence of acetylcholine; type: functional, cell-based; set-up: scale not given: the % may be the effect or the level left

Chain of Neuronal acetylcholine receptor; alpha3/beta2 (P04757 whole entry): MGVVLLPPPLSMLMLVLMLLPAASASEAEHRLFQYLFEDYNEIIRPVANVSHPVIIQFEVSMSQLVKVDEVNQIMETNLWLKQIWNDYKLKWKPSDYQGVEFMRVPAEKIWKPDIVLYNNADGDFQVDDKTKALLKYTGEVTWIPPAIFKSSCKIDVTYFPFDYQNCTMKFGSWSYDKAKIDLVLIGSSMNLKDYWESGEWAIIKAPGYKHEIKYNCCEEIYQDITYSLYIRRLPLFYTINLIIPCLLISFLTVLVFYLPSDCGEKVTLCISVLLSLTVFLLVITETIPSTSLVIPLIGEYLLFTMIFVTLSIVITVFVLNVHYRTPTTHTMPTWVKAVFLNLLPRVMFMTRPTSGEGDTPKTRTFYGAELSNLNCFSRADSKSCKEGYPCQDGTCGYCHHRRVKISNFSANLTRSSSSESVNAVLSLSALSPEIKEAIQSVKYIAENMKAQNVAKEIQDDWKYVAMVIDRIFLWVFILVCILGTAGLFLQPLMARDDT
Chain of Neuronal acetylcholine receptor; alpha3/beta2 (P12390 whole entry): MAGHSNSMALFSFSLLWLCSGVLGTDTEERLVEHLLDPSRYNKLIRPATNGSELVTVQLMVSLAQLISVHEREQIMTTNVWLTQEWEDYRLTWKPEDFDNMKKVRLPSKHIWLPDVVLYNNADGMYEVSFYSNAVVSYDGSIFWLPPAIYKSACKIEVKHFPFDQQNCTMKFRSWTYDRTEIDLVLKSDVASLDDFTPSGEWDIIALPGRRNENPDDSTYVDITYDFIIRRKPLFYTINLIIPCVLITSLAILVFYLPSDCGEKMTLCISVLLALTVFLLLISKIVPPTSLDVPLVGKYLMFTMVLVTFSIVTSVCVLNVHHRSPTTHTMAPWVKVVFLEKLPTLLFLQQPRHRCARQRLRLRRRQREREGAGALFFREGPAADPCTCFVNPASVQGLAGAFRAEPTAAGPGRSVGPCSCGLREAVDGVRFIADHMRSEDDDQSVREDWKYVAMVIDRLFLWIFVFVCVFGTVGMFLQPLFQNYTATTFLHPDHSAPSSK
Chain of Neuronal acetylcholine receptor; alpha3/beta4 (P04757 whole entry): as the sequence (P04757 whole entry) above
Chain of Neuronal acetylcholine receptor; alpha3/beta4 (P12392 whole entry): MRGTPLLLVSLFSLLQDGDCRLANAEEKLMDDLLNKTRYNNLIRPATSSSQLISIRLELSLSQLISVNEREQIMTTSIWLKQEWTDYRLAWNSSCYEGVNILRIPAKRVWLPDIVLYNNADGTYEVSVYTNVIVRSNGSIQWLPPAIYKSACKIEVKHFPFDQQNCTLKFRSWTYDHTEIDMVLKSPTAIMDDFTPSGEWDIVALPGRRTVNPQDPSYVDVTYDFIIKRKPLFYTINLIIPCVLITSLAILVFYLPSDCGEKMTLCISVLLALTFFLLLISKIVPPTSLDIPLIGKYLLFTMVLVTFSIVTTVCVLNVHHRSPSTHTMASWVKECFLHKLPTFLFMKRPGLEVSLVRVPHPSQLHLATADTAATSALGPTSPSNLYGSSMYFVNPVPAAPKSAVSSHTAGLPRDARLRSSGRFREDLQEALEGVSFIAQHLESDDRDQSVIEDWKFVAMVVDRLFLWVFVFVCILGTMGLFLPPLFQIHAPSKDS
Chain of Neuronal acetylcholine receptor subunit alpha-6 (P43143 whole entry, one chain of several): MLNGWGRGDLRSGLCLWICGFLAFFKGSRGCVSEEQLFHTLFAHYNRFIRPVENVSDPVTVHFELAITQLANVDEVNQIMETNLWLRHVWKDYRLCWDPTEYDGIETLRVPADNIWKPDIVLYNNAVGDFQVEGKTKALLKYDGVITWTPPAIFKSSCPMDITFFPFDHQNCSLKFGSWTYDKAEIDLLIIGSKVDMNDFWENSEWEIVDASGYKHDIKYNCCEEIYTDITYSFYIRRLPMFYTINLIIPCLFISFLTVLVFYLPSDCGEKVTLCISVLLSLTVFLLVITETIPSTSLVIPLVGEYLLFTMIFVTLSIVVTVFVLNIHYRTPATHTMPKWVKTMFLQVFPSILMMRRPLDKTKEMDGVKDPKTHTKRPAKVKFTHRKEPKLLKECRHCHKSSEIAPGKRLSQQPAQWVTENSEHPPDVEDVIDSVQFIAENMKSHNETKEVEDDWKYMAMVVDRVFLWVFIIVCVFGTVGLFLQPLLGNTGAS
Chain of Neuronal acetylcholine receptor; alpha4/beta2 (Rattus norvegicus, UniProt P09483+P12390) (P09483 whole entry): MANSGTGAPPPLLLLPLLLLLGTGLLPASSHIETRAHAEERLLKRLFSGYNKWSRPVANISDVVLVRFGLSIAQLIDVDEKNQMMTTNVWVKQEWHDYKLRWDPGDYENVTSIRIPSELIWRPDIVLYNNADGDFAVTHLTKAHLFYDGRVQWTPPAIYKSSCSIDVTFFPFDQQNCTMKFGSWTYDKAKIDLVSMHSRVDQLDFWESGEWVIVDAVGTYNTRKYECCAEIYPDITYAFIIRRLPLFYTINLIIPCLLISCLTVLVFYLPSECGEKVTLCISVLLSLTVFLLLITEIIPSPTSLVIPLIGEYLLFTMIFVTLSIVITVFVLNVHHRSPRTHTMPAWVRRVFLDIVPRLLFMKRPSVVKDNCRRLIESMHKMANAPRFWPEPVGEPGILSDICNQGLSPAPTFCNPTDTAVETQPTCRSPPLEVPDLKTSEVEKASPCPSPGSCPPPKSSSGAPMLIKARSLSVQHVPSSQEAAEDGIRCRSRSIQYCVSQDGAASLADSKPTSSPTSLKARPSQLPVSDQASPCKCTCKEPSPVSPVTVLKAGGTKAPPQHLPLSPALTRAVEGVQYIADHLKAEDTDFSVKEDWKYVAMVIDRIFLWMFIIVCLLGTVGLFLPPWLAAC
Chain of Neuronal acetylcholine receptor; alpha4/beta2 (Rattus norvegicus, UniProt P09483+P12390) (P12390 whole entry): as the sequence (P12390 whole entry) above
Chain of Neuronal acetylcholine receptor; alpha4/beta4 (P09483 whole entry): as the sequence (P09483 whole entry) above
Chain of Neuronal acetylcholine receptor; alpha4/beta4 (P12392 whole entry): as the sequence (P12392 whole entry) above
Chain of Neuronal acetylcholine receptor; alpha2/beta4 (P12389 whole entry): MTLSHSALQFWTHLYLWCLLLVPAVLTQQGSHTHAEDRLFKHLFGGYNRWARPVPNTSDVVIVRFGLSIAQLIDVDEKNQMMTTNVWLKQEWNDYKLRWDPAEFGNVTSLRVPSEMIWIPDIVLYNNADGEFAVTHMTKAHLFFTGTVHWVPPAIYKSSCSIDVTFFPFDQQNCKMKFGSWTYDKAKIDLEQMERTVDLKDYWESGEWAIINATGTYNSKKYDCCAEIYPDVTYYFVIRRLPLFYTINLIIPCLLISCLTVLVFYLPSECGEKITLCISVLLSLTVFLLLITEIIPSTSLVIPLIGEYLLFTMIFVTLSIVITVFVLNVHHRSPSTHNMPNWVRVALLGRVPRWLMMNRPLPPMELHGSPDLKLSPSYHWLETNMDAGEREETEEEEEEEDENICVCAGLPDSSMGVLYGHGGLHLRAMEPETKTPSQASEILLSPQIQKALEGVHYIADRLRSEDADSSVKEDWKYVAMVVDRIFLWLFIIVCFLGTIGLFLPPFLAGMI
Chain of Neuronal acetylcholine receptor; alpha2/beta4 (P12392 whole entry): as the sequence (P12392 whole entry) above
Chain of Neuronal acetylcholine receptor subunit alpha-2 (P12389 whole entry, one chain of several): as the sequence (P12389 whole entry) above
T1 sequence (P17787 whole entry): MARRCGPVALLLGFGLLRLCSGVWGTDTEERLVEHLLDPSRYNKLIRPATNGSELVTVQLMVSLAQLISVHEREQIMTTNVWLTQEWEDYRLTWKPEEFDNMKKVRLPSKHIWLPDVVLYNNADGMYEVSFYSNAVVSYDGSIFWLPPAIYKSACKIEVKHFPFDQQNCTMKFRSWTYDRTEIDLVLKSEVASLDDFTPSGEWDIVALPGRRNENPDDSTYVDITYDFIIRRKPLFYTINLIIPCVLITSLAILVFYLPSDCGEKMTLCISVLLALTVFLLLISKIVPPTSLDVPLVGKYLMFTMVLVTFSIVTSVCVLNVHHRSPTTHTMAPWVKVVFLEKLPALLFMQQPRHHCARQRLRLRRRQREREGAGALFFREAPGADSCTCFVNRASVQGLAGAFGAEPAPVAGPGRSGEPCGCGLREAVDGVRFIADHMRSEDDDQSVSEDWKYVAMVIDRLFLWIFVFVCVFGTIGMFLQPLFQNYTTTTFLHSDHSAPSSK
T1 sequence (P43681 whole entry): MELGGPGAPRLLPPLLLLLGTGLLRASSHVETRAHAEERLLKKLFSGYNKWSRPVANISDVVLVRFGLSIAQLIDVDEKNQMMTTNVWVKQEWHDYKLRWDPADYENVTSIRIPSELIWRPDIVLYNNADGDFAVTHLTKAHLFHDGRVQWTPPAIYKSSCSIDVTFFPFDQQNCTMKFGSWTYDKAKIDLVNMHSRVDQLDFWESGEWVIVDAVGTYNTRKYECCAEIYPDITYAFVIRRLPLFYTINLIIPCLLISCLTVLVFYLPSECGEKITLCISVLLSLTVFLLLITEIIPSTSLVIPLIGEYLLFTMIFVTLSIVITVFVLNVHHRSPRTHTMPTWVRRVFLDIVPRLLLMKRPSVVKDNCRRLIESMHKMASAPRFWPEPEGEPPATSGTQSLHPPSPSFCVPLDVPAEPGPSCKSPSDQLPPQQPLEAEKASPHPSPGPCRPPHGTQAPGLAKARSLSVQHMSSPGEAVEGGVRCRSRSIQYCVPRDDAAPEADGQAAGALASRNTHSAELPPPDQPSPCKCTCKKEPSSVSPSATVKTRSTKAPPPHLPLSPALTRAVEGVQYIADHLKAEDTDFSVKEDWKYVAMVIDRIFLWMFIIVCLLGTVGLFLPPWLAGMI

With `[18F]c1ncccc1OC[C@@H]1CCN1` the Ki [1] was 3.02 nM, the Activity (Mus musculus [2]) was “Toxic” and the Activity (Mus musculus [3]) was “Toxic”. For the same compound, the Activity (Mus musculus [4]) was “Toxic”, the Ki [5] was 1.44 nM and the Activity (Mus musculus [6]) was “Toxic”. The Activity (Mus musculus [7]) was “Toxic”, the Activity (Mus musculus [8]) was “Toxic” and the Ki [9] was 3680 nM. For the same compound, the half-life [10] was 4.5 h, the Ki [11] was 181 nM and the Activity (Mus musculus [12]) was “Toxic”. For the same compound, the Activity (Mus musculus [13]) was “Toxic”.

In the case of `[18F]c1ccc(OC[C@@H]2CCN2)cn1`, the Activity (Mus musculus [14]) is reported as “Toxic”, the Activity (Mus musculus [15]) is reported as “Toxic” and the Activity (Mus musculus [16]) is reported as “Toxic”.

Work on `CN1[C@@H]2CC[C@@H]1[C@@H](c1cncc(-c3cccc([18F])n3)c1)C2` yielded a half-life [17] of 1.33 h, a remaining at 0.5 h [18] of 12.3% and a remaining at 1 h [19] of 14.9%. It also gave a remaining at 0.5 h [20] of 92.5%.

For `CN1[C@@H]2CC[C@@H]1[C@@H](c1cncc(-c3cccnc3[18F])c1)C2`, the half-life [17] was 3.5 h.

For `CN1[C@@H]2CC[C@@H]1[C@@H](c1cncc(-c3cccnc3F)c1)C2` (racemic), the logD [21] was 0.67 and the Ki [22] was 0.16 nM.

For `CN1[C@@H]2CC[C@@H]1[C@@H](c1cncc(-c3ccnc(F)c3)c1)C2` (racemic), the logD [21] was 0.74.

For `CN1C2CCC1C(c1cncc(-c3ccc([18F])nc3)c1)C2` (single isomer, unassigned; (+)), the Ki [22] was 2.1 nM.

Compound `CN1C2CCC1C(c1cncc(-c3ccc(F)nc3)c1)C2` (single isomer, unassigned; (-)) has a Ki [1] of 0.093 nM, a logD [21] of 0.46 and a Ki [5] of 0.009 nM. For the same compound, the Ki [23] was 0.011 nM, the Ki [24] was 0.31 nM and the Ki [25] was 0.047 nM. The Ki [22] was 0.05 nM, the Ki [9] was 30 nM and the Ki [11] was 0.51 nM.

`CN1[C@@H]2CC[C@@H]1[C@@H](c1cncc(-c3ccnc(F)c3)c1)C2` (stereo in doubt; (+)-6a) gave a Ki [22] of 1.29 nM.

`CN1[C@@H]2CC[C@@H]1[C@@H](c1cncc(-c3cccnc3F)c1)C2` (stereo in doubt; (+)-6b) showed a Ki [22] of 7.35 nM.

Work on `CN1[C@@H]2CC[C@@H]1[C@@H](c1cncc(-c3cccc(F)n3)c1)C2` (stereo in doubt; (+)-6c) yielded a Ki [22] of 4.67 nM.

`CN1[C@@H]2CC[C@@H]1[C@@H](c1cncc(-c3ccnc(F)c3)c1)C2` (stereo in doubt; (-)-6a) gave a Ki [1] of 0.13 nM, a Ki [5] of 0.015 nM and a Ki [23] of 0.019 nM. For the same compound, the Ki [24] was 0.58 nM, the Ki [25] was 0.031 nM and the Ki [22] was 0.11 nM. It also gave a Ki [9] of 39 nM and a Ki [11] of 0.84 nM.

`CN1[C@@H]2CC[C@@H]1[C@@H](c1cncc(-c3cccnc3F)c1)C2` (stereo in doubt; (-)-6b) gave a Ki [1] of 0.68 nM, a Ki [5] of 0.034 nM and a Ki [23] of 0.058 nM. It also gave a Ki [24] of 0.71 nM, a Ki [25] of 0.021 nM and a Ki [22] of 0.05 nM. For the same compound, the Ki [9] was 41 nM and the Ki [11] was 0.66 nM.

`CN1[C@@H]2CC[C@@H]1[C@@H](c1cncc(-c3cccc(F)n3)c1)C2` (stereo in doubt; (-)-6c) [listing 1 of 2 here] gave a Ki [1] of 4 nM, a logD [21] of 0.99 and a Ki [5] of 0.26 nM. The Ki [23] was 0.26 nM, the Ki [24] was 6.2 nM and the Kd [26] was 0.54 nM. The Ki [25] was 0.95 nM, the Activity (Mus musculus [27]) was “Non-toxic” and the Ki [22] was 0.31 nM. The Activity (Mus musculus [28]) was “Non-toxic”, the Activity (Mus musculus [29]) was “Non-toxic” and the Ki [9] was 310 nM. For the same compound, the Activity (Mus musculus [30]) was “Non-toxic” and the Ki [11] was 7.8 nM.

Work on `CN1[C@@H]2CC[C@@H]1[C@@H](c1cncc(-c3cccc(F)n3)c1)C2` (stereo in doubt; (-)-6c) [listing 2 of 2 here] yielded an Activity [31] of 14%.

In the case of `Clc1ccc(C2CC3CCC2N3)cn1` (centres undefined) [EPIBATIDINE], the Ki [22] is reported as 0.045 nM.
